The structures appear in SMILES notation.

This assay deals with T1, KATP channels (Homo sapiens, UniProt O60706+Q14654).
T1 construct: TE671 human medulloblastoma cells were obtained from ATCC; host or cells: TE671 human medulloblastoma cells
T1 sequence (O60706 1-1549 isoform O60706-2): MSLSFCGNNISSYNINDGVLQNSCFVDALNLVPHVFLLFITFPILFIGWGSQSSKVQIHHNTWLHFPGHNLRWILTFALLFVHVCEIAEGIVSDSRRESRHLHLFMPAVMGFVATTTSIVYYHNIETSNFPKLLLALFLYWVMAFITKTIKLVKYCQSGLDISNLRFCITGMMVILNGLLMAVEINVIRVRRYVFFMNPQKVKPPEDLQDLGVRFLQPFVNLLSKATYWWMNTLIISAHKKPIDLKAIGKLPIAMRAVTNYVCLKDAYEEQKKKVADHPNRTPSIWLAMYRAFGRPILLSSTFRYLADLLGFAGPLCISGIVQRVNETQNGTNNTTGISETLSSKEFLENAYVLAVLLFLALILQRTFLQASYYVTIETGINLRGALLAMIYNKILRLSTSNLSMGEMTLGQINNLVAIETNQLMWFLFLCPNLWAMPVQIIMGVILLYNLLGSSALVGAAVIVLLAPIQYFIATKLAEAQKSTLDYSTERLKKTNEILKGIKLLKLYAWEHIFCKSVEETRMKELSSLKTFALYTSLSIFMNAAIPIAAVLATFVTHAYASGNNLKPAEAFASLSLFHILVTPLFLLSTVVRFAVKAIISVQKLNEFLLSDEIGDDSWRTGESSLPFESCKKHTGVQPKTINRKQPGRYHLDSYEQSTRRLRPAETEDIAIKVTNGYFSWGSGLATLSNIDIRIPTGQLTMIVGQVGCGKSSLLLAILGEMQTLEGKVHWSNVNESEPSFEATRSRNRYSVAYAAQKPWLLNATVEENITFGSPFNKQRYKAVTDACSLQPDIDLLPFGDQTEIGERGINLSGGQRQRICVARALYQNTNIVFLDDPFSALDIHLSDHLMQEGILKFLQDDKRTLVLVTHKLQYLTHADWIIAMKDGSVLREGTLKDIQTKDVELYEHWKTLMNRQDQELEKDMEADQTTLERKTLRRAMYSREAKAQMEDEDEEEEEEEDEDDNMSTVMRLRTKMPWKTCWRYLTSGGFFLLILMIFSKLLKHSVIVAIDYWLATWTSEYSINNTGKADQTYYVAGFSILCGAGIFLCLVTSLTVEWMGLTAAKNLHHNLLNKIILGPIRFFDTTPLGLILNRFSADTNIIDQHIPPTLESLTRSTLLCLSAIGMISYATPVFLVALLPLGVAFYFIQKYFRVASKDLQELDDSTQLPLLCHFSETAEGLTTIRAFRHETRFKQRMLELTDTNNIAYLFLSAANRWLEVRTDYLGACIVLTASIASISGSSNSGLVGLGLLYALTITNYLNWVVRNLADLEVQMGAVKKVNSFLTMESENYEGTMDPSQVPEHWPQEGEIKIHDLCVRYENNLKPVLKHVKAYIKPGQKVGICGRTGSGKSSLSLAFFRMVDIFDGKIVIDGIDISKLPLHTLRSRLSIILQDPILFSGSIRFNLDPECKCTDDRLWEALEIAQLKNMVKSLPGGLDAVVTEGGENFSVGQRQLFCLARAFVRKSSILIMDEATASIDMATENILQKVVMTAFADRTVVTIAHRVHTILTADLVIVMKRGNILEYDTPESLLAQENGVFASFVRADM
T1 sequence (Q14654 whole entry): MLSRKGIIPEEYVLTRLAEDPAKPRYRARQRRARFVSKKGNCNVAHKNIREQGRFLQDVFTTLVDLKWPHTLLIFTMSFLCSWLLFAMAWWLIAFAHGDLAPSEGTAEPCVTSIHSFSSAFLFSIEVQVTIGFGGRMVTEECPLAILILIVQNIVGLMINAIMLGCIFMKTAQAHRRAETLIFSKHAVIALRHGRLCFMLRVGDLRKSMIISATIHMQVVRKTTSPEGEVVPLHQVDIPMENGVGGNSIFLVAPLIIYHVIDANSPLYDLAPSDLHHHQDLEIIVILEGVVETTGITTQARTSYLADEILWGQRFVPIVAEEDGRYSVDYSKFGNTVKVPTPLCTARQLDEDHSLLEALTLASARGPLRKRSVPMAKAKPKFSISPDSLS
Description: Potassium Channel Assay (FLIPR membrane potential dye, TE671 cells). The class given is cell-based. Set-up: key: Active: A compound was designated as active if it produced greater than or equal to 10% response at 30 μM; Inactive: A compound was designated as inactive if it produced less than 10% response at 30 μM. The following applies: percent response at 30 μM; TE671 human medulloblastoma cells; hyperpolarization seen as decrease in fluorescent intensity, room temperature. The procedure:
TE671 human medulloblastoma cells were obtained from ATCC and grown in Dulbecco's modified Eagle's medium (DMEM) supplemented with 10% fetal bovine serum, 100 U/ml penicillin and 100 U/ml streptomycine.
The day before testing, the cells were plated in black 96-well plates at 50 K/well. On the day of testing, the growth media was removed, then 100 μl of FLIPR buffer (20 mM HEPES, 120 mM NaCl, 2 mM KCl, 2 mM CaCl2, 1 mM MgCl2, 5 mM Glucose) and 100 μl of Membrane Potential Assay Dye (Molecular Devices) dissolved in FLIPR buffer were added to each well. The cells were incubated at room temperature for 15 to 30 min.
The effect of test compounds on KATP channels were evaluated on a fluorometric imaging plate reader (FLIPR, Molecular Devices) at room temperature. After a baseline period, 50 μl of 5× stock solution of test compound prepared in FLIPR buffer was added and fluorescent change was monitored for 3 minutes. After this reading, glyburide, a KATP channel blocker, was added to a final concentration of 5 μM to check the specificity of the test compound as a KATP channel openers. Hyperpolarization resulting from KATP channel opening was observed as a decrease in fluorescent intensity.
Representative compounds of the present invention were tested according to the procedure described above, with results as listed in Table BIO1 below. Test compound activity was determined as the percent. A compound was designated as active if it produced greater than or equal to 10% response at 30 μM.
Regarding `O=C1CCCC(O)=C1N(C1=C(O)CCCC1=O)c1ccc(F)c(F)c1` [compound 2], the Response entry is “Active”. As for `O=C1CCCC(O)=C1N(C1=C(O)CCCC1=O)c1cccc(I)c1` [compound 3], the Response entry is reported as “Active”. As for `N#Cc1cccc(N(C2=C(O)CCC2=O)C2=C(O)CCC2=O)c1` [compound 5], the Response entry is listed as “Active”.

(Values after patent publication US7674793B2, “Tricyclic dihydropyrazines as potassium channel openers” (Janssen Pharmaceutica NV, priority 2006, dated 2010).)
